Reference: ChEMBL document CHEMBL5291721, “A preclinical secondary pharmacology resource illuminates target-adverse drug reaction associations of marketed drugs” (Nat Commun, 2023)

Assays:
[1] = molecular target: Beta-1 adrenergic receptor (Homo sapiens, UniProt P08588); assay type: functional
Cannabinoid receptor 1 = Cannabinoid receptor 1 (Homo sapiens, UniProt P21554); assay type: functional, cell-based
Estrogen receptor = molecular target: T1, Estrogen receptor (Homo sapiens, UniProt P03372)
T1 sequence (P03372 whole entry): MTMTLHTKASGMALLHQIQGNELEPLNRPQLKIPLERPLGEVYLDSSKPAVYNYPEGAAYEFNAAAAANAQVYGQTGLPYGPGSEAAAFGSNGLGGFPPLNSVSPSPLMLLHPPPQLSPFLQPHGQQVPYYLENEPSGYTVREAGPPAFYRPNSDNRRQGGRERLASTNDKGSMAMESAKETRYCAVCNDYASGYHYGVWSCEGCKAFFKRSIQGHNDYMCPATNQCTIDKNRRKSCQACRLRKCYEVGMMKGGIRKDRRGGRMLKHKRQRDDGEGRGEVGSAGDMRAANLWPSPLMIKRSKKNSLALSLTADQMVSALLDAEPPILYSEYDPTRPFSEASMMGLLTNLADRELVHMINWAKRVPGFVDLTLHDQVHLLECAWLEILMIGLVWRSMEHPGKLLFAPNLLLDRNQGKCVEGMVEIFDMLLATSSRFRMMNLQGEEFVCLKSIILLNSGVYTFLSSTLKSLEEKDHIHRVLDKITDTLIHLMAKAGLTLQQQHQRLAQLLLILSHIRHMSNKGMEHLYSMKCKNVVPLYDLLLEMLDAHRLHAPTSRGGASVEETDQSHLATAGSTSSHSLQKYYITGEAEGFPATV

[2] = molecular target: Gamma-aminobutyric acid receptor subunit alpha-1 (Rattus norvegicus, UniProt P62813)
[3] = molecular target: Kappa-type opioid receptor (Homo sapiens, UniProt P41145)
[4] = molecular target: T2, Prostaglandin G/H synthase 1 (Rattus norvegicus, UniProt Q63921); assay type: functional
T2 sequence (Q63921 whole entry): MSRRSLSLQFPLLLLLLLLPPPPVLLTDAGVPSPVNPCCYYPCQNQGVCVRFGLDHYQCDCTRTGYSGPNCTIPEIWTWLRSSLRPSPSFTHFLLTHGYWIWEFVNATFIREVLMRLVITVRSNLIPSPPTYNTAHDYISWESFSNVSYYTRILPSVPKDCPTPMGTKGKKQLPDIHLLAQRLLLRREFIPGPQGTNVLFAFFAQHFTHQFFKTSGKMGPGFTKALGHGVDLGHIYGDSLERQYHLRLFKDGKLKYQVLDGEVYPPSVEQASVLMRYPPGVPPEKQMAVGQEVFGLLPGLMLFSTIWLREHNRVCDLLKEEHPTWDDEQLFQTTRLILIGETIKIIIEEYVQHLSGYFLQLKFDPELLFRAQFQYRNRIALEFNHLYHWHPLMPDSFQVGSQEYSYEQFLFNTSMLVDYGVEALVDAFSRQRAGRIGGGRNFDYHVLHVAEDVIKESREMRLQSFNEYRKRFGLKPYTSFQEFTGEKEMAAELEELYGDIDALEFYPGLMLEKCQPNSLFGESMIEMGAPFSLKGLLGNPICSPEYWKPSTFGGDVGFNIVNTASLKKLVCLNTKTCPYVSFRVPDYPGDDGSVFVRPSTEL

[5] = molecular target: Sodium-dependent serotonin transporter (Homo sapiens, UniProt P31645)
Thromboxane A2 receptor = molecular target: T3, Thromboxane A2 receptor (Homo sapiens, UniProt P21731)
T3 sequence (P21731 whole entry): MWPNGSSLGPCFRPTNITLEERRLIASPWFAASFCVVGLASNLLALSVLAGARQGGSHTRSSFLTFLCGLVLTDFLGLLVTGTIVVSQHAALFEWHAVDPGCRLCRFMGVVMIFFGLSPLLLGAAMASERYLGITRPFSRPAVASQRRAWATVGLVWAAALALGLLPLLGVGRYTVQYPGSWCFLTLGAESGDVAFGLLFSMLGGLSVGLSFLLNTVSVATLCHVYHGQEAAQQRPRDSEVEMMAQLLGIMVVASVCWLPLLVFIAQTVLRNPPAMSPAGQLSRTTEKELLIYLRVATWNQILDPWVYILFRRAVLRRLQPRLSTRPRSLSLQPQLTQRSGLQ

[6] = molecular target: T4, Amine oxidase [flavin-containing] A (Homo sapiens, UniProt P21397); assay type: functional
T4 sequence (P21397 whole entry): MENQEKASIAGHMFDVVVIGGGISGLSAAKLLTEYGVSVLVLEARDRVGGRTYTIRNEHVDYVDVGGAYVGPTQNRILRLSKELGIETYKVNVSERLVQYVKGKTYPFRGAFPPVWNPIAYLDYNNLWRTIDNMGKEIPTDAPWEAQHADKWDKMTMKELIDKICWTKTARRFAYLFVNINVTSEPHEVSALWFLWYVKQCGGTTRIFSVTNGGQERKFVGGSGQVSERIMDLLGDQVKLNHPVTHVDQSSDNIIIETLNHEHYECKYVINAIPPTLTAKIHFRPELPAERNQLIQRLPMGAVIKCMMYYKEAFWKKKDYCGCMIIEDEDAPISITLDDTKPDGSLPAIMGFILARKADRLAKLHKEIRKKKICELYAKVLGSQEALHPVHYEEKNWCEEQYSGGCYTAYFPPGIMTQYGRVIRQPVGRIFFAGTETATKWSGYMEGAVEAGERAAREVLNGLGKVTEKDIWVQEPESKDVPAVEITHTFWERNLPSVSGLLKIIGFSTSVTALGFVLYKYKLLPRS

D(3) dopamine receptor = D(3) dopamine receptor (Homo sapiens, UniProt P35462)
Further: assay procedure not described here.

Gamma-aminobutyric acid receptor subunit alpha-1, sequence (P62813 whole entry): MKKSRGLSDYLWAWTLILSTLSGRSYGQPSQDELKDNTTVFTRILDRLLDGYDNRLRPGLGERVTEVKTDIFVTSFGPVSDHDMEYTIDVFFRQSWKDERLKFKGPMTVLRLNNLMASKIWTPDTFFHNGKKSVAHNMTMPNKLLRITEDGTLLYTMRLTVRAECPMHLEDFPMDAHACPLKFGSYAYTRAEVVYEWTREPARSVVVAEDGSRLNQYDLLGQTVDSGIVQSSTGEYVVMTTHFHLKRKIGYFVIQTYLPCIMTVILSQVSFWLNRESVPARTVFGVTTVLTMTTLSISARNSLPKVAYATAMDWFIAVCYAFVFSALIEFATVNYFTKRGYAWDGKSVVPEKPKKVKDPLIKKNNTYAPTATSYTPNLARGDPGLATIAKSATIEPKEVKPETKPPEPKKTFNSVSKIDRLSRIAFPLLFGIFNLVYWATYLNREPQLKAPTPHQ
Sodium-dependent serotonin transporter, sequence (P31645 whole entry): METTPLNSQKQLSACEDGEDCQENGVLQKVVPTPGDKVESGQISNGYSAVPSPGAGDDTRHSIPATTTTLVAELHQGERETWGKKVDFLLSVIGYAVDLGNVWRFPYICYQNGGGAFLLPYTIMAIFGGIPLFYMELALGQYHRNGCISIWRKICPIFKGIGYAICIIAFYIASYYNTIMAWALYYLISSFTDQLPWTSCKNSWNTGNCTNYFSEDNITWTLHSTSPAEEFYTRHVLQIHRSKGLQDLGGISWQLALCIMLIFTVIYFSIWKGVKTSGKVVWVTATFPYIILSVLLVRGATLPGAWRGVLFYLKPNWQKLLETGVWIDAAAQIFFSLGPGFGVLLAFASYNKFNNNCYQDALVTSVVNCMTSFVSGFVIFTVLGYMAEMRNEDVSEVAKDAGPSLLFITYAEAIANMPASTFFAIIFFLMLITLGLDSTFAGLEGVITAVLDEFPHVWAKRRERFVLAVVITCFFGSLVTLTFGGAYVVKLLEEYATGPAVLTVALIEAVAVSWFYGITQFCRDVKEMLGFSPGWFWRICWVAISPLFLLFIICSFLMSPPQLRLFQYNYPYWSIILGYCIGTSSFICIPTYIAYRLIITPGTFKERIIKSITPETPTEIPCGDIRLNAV
Kappa-type opioid receptor, sequence (P41145 whole entry): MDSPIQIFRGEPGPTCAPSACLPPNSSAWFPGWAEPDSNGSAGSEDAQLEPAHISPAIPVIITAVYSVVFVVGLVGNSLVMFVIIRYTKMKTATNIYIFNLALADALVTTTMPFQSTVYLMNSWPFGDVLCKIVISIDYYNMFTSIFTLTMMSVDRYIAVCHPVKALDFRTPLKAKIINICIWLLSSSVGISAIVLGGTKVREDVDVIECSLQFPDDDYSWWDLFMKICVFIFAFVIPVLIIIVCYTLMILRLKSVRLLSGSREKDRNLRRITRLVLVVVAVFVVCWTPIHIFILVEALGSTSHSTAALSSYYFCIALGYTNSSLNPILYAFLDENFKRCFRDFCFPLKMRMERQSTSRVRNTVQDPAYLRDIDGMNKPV
D(3) dopamine receptor, sequence (P35462 whole entry): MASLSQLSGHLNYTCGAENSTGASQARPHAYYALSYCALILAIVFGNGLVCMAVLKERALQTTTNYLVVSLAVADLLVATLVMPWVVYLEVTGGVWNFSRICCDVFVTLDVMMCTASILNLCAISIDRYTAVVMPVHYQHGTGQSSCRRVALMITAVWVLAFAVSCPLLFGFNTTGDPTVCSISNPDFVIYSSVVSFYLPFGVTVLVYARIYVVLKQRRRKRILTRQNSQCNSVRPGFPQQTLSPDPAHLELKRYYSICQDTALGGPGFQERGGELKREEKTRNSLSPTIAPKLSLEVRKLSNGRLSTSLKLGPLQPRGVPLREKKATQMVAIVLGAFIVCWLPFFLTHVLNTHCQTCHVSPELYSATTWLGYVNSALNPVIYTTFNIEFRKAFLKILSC
Cannabinoid receptor 1, sequence (P21554 whole entry): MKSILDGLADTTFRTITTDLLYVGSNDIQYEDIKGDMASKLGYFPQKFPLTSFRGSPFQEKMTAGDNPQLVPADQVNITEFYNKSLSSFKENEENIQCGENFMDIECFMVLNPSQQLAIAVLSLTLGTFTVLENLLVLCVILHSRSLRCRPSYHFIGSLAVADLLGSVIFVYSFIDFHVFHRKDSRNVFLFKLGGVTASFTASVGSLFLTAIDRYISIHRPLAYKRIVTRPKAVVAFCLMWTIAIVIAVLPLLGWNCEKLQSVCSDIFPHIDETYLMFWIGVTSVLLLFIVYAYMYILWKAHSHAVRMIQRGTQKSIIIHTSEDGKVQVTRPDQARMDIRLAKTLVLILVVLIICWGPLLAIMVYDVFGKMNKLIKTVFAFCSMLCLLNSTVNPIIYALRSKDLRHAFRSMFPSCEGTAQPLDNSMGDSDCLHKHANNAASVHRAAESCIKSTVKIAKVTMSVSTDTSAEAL
Beta-1 adrenergic receptor, sequence (P08588 whole entry): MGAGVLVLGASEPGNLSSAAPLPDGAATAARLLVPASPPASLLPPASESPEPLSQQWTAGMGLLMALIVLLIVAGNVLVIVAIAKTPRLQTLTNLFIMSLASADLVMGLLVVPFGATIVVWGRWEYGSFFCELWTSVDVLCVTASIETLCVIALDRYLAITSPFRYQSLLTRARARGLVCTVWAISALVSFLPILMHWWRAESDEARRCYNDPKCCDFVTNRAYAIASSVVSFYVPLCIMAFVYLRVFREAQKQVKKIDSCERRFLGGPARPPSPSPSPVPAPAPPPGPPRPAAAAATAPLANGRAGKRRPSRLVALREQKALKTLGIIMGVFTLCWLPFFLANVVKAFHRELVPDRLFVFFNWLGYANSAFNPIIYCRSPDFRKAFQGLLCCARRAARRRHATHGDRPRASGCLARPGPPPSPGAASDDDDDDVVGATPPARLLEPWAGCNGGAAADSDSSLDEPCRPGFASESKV

Row | SMILES | AC50 [1] [µM] | AC50 (Cannabinoid receptor 1) [µM] | AC50 (Estrogen receptor) [µM] | AC50 [2] [µM] | AC50 [3] [µM] | AC50 [4] [µM] | AC50 [5] [µM] | AC50 (Thromboxane A2 receptor) [µM] | AC50 [6] [µM] | AC50 (D(3) dopamine receptor) [µM]
1 | CC(=O)O[C@]1(C(C)=O)CC[C@H]2[C@@H]3C=C(C)C4=CC(=O)CC[C@@H]4[C@H]3CC[C@@]21C [NOMEGESTROL ACETATE] | > 30 | > 30 | > 30 | 4.4 | > 30 | > 30 | > 30 | > 30 | > 30 | > 30
2 | OC[C@H]1O[C@@H](c2ccc(F)c(Cc3cc4ccccc4s3)c2)[C@H](O)[C@@H](O)[C@@H]1O [IPRAGLIFLOZIN] |  |  | > 30 | > 30 |  |  | > 30 |  |  | 
3 | C#C[C@]1(O)CC[C@H]2[C@@H]3CCC4=CC(=O)CC[C@@H]4[C@H]3C(=C)C[C@@]21CC [ETONOGESTREL] |  | > 30 | 5.62 | 28 | > 30 |  | > 30 |  | > 30 | > 30
